Assays:
hiPSC-VSMCs [1] = assay: Contractility of hiPSC-VSMCs in response to vasoactive agents; type: cell-based, human; details: hiPSC-VSMCs treated with agent; FIG. 6B
Description: (§1) A significant difference also between cells treated with carbachol and potassium chloride was observed (FIG. 6B).

hiPSC-VSMCs [2] = assay: Intracellular calcium flux (Fluo4 fluorescence) in hiPSC-VSMCs; type: cell-based, human; details: FIG. 6A
Description: as §1

| Structure (SMILES) | contractility (hiPSC-VSMCs [1]) | Fluo4 fluorescence (intracellular calcium flux) (hiPSC-VSMCs [2]) |
| --- | --- | --- |
| [Cl-].[K+] [KCl, potassium chloride] | significantly increased contractility | – |
| C[N+](C)(C)CCOC(N)=O [carbachol] | significantly increased contractility | dramatic increase |

— US20230147855A1, “METHODS OF GENERATING PLURIPOTENT STEM CELL-DERIVED VASCULAR SMOOTH MUSCLE CELLS, USES, AND COMPOSITION RELATED THERETO” (EMORY UNIVERSITY, priority 2020, published 2023)
